{"source": "the supplement of paper PMC10307832", "assay_in_all_cases": "relative viability (nuclei count vs DMSO), 5 days (fraction); higher = more cells survive", "key": {"Midostaurin + Bortezomib": {"compound": "CO[C@@H]1[C@H](N(C)C(=O)c2ccccc2)C[C@H]2O[C@]1(C)n1c3ccccc3c3c4c(c5c6ccccc6n2c5c31)C(=O)NC4 [Midostaurin] + CC(C)C[C@H](NC(=O)[C@H](Cc1ccccc1)NC(=O)c1cnccn1)B(O)O [Bortezomib] (partner 0.002 µM)", "procedure,_shortened": "(§1)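 Lung cancer cell lines in 1536-well plates were dosed by pin tool the day after seeding, either with one drug alone or with a fixed anchor-drug dose plus five library-drug doses (not always all listed) in √10 steps. After 5 days, cells were fixed and their nuclei stained in one step (final 0.05% Triton X-100, 1% formaldehyde, 1 ug/ml Hoechst), then counted on 4× images. Relative viability is the nuclei count in treated wells divided by that in vehicle wells. Values are medians of duplicate plates.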"}, "Midostaurin + Crizotinib": {"compound": "CO[C@@H]1[C@H](N(C)C(=O)c2ccccc2)C[C@H]2O[C@]1(C)n1c3ccccc3c3c4c(c5c6ccccc6n2c5c31)C(=O)NC4 [Midostaurin] + C[C@@H](Oc1cc(-c2cnn(C3CCNCC3)c2)cnc1N)c1c(Cl)ccc(F)c1Cl [Crizotinib] (partner 1 µM)", "procedure,_shortened": "as §1"}, "[1]": {"compound": "COc1cc(-c2nn([C@H]3CC[C@H](N4CCN(C(C)=O)CC4)CC3)c3ncnc(N)c23)ccc1NC(=O)c1cc2ccccc2n1C + Cc1cc(Nc2cc(N3CCN(C)CC3)nc(Sc3ccc(NC(=O)C4CC4)cc3)n2)n[nH]1 [Tozasertib] (partner 0.1 µM)", "procedure,_shortened": "as §1"}, "[2]": {"compound": "COc1cc(-c2nn([C@H]3CC[C@H](N4CCN(C(C)=O)CC4)CC3)c3ncnc(N)c23)ccc1NC(=O)c1cc2ccccc2n1C + N=C(N)NC(=N)NCCc1ccccc1 [Phenformin] (partner 250 µM)", "procedure,_shortened": "as §1"}, "[3]": {"compound": "COc1cc(-c2nn([C@H]3CC[C@H](N4CCN(C(C)=O)CC4)CC3)c3ncnc(N)c23)ccc1NC(=O)c1cc2ccccc2n1C + Nc1ncn([C@H]2C[C@H](O)[C@@H](CO)O2)c(=O)n1 [Decitabine] (partner 2 µM)", "procedure,_shortened": "as §1"}}}
{"cell line": "UMC-11", "values": [{"measurement": "relative viability", "setting": "Midostaurin + Bortezomib; first compound 0.01 µM", "result": 0.734}, {"measurement": "relative viability", "setting": "Midostaurin + Bortezomib; first compound 0.03162 µM", "result": 0.591}, {"measurement": "relative viability", "setting": "Midostaurin + Bortezomib; first compound 0.1 µM", "result": 0.508}, {"measurement": "relative viability", "setting": "Midostaurin + Bortezomib; first compound 0.3162 µM", "result": 0.34}, {"measurement": "relative viability", "setting": "Midostaurin + Crizotinib; first compound 0.01 µM", "result": 0.553}, {"measurement": "relative viability", "setting": "Midostaurin + Crizotinib; first compound 0.03162 µM", "result": 0.53}, {"measurement": "relative viability", "setting": "Midostaurin + Crizotinib; first compound 0.1 µM", "result": 0.447}, {"measurement": "relative viability", "setting": "Midostaurin + Crizotinib; first compound 0.3162 µM", "result": 0.179}, {"measurement": "relative viability", "setting": "[1]; first compound 0.0128 µM", "result": 0.225}, {"measurement": "relative viability", "setting": "[1]; first compound 0.04048 µM", "result": 0.19}, {"measurement": "relative viability", "setting": "[1]; first compound 0.128 µM", "result": 0.197}, {"measurement": "relative viability", "setting": "[1]; first compound 1.28 µM", "result": 0.193}, {"measurement": "relative viability", "setting": "[2]; first compound 0.0128 µM", "result": 0.285}, {"measurement": "relative viability", "setting": "[2]; first compound 0.04048 µM", "result": 0.336}, {"measurement": "relative viability", "setting": "[2]; first compound 0.128 µM", "result": 0.311}, {"measurement": "relative viability", "setting": "[2]; first compound 1.28 µM", "result": 0.279}, {"measurement": "relative viability", "setting": "[3]; first compound 0.0128 µM", "result": 0.706}, {"measurement": "relative viability", "setting": "[3]; first compound 0.04048 µM", "result": 0.606}, {"measurement": "relative viability", "setting": "[3]; first compound 0.128 µM", "result": 0.745}, {"measurement": "relative viability", "setting": "[3]; first compound 1.28 µM", "result": 0.543}]}
